Structures are written as SMILES. In brackets after ≈: the same amount, converted by molar mass. Several values for one entry are separate records, joined by “and”; a condition that tells them apart may be missing. Equal values may be shown once. Some results are limits rather than exact numbers.

Among the test systems are Escherichia coli UB1005; Escherichia coli O111:B4; Corynebacterium xerosis; Candida albicans CAN105; Escherichia coli; Escherichia coli BW25113; Escherichia coli K-12.
Common to all, as to test: ≥ marks a high value that may be exact or a test limit, other limits are often not marked, values filed in µg/mL are converted to µM
The subject of experiment [1] is Salmonella typhimurium CCARM 8009.
Experiment [2] deals with Staphylococcus aureus KCTC 1621.
For experiment [3], the system named is Salmonella typhimurium KCTC 1926.
Experiment [4] deals with Bacillus subtilis KCTC 3068.
Experiment [5] has as its system Enterococcus faecalis KCTC 2011.
Experiment [6] deals with Escherichia coli CCARM 1229.
For experiment [7], the system named is Acinetobacter baumannii CCARM 12035.
Experiment [8] relates to Pseudomonas aeruginosa CCARM 2095.
Experiment [9] concerns Escherichia coli KCTC 1682.
In experiment [10] the test system is Pseudomonas aeruginosa KCTC 1637.
In experiment [11] the test system is Acinetobacter calcoaceticus ATCC 23055.
The subject of experiment [12] is Pseudomonas aeruginosa ATCC 27853.
For experiment [13], the system named is Staphylococcus aureus K147.
In experiment [14] the test system is Pseudomonas aeruginosa H547.
Experiment [15] relates to Stenotrophomonas maltophilia ATCC 13637.
For experiment [16], the system named is Pseudomonas aeruginosa Z61.
In experiment [17] the test system is Enterococcus faecalis ATCC 29212.
Experiment [18] relates to Enterobacter cloacae ATCC 13047.
Experiment [19] relates to Listeria monocytogenes NCTC 7973.
Experiment [20] concerns Staphylococcus aureus SAP 0017.
In experiment [21] the test system is Pseudomonas aeruginosa H374.
Experiment [22] relates to Staphylococcus haemolyticus.
For experiment [23], the system named is Burkholderia cepacia ATCC 25416.
Experiment [24] concerns Pseudomonas aeruginosa H187.
Experiment [25] has as its system Pseudomonas aeruginosa H103.
The subject of experiment [26] is Pseudomonas aeruginosa H744.
For experiment [27], the system named is Pseudomonas aeruginosa K799.
Experiment [28] deals with Staphylococcus aureus ATCC 25923.
Experiment [29] concerns Salmonella enterica subsp. enterica serovar Typhimurium ATCC 14028s.
Experiment [30] relates to Staphylococcus epidermidis.
Experiment [31] concerns Streptococcus pyogenes ATCC 19615.
In experiment [32] the test system is Acinetobacter baumannii ATCC 19606.
Experiment [33] has as its system Escherichia coli BW25113 ΔsbmA.
For experiment [34], the system named is Klebsiella pneumoniae ATCC 700603.
Experiment [35] concerns Pseudomonas aeruginosa PAO1.
Experiment [36] concerns Pseudomonas aeruginosa PA214.
Experiment [37] concerns Pseudomonas aeruginosa PA287.

In general, MIC refers to the smallest concentration in the dilution series that meets the test's criterion for growth inhibition. As to `CC[C@H](C)[C@H](NC(=O)CNC(=O)[C@H](CC(=O)O)NC(=O)[C@H](CCCN=C(N)N)NC(=O)[C@@H](NC(=O)[C@H](CC(N)=O)NC(=O)[C@H](CCCN=C(N)N)NC(=O)CNC(=O)[C@@H](NC(=O)[C@H](CCCCN)NC(=O)[C@H](CCC(=O)O)NC(=O)[C@@H](NC(=O)[C@H](CCCCN)NC(=O)[C@H](CCCCN)NC(=O)[C@H](C)NC(=O)[C@@H](NC(=O)[C@H](CCCCN)NC(=O)[C@H](C)NC(=O)[C@@H](N)CCCN=C(N)N)[C@@H](C)CC)[C@@H](C)CC)C(C)C)C(C)C)C(=O)N[C@H](C(=O)N[C@@H](CCCCN)C(=O)N[C@@H](C)C(N)=O)[C@@H](C)CC` [RAKIAKKIEKVGRNVRDGIIKA], the MIC in experiment [1] is 8 µM (≈ 19.7 µg/mL); in experiment [2] it was ≥ 128 µM; in experiment [3], 4 µM (≈ 9.85 µg/mL); in experiment [4], ≥ 128 µM; in experiment [5], ≥ 128 µM; in [6] it was 4 µM (≈ 9.85 µg/mL). Besides, the MIC in experiment [7] is ≥ 32 µM; in experiment [8], 16 µM (≈ 39.4 µg/mL); in experiment [9] it was 2 µM (≈ 4.93 µg/mL); in experiment [10], 8 µM (≈ 19.7 µg/mL).

`CC[C@H](C)[C@H](NC(=O)[C@H](CC(C)C)NC(=O)[C@H](C)NC(=O)[C@@H]1CCCN1C(=O)[C@H](CC(C)C)NC(=O)CNC(=O)[C@@H](NC(=O)[C@@H](NC(=O)[C@H](CC(C)C)NC(=O)[C@@H](NC(=O)[C@H](CCCCN)NC(=O)[C@H](CCCCN)NC(=O)[C@@H](NC(=O)[C@H](C)NC(=O)[C@@H](NC(=O)[C@@H](NC(=O)[C@H](CC(C)C)NC(=O)[C@H](CCCCN)NC(=O)[C@H](CCCCN)NC(=O)[C@@H](NC(=O)[C@H](Cc1ccccc1)NC(=O)[C@H](CO)NC(=O)[C@H](CCCCN)NC(=O)[C@H](Cc1c[nH]c2ccccc12)NC(=O)[C@@H](N)CCCCN)[C@@H](C)CC)[C@@H](C)O)[C@@H](C)O)C(C)C)C(C)C)[C@@H](C)O)[C@@H](C)O)C(=O)N[C@@H](CO)C(=O)O` [KWKSFIKKLTTAVKKVLTTGLPALIS]: the MIC in [11] was 1.39 µM (≈ 4 µg/mL); in experiment [12], 5.57 µM (≈ 16 µg/mL); in the experiment on Escherichia coli UB1005 it was 0.696 µM (≈ 2 µg/mL); in experiment [13] it was 11.1 µM (≈ 32 µg/mL); with Escherichia coli O111:B4, 0.696 µM (≈ 2 µg/mL); in [14], 0.696 µM (≈ 2 µg/mL). Moreover, the MIC came out at 1.04 µM (≈ 3 µg/mL) in experiment [15]; 0.696 µM (≈ 2 µg/mL) against Corynebacterium xerosis; 1.04 µM (≈ 3 µg/mL) in experiment [16]; 22.3 µM (≈ 64 µg/mL) in [17]; 11.1 µM (≈ 32 µg/mL) against Candida albicans CAN105; 0.696 µM (≈ 2 µg/mL) in experiment [18]. The MIC in [19] was 1.39 µM (≈ 4 µg/mL); in experiment [20], 2.79 µM (≈ 8 µg/mL); in experiment [21] it was 0.696 µM (≈ 2 µg/mL); in experiment [22] it was 2.79 µM and 5.57 µM; in experiment [23] it was 22.3 µM (≈ 64 µg/mL); in [24], 5.57 µM (≈ 16 µg/mL). The MIC in experiment [25] was 1.39 µM (≈ 4 µg/mL); in experiment [26], 0.696 µM (≈ 2 µg/mL); in experiment [27], 2.09 µM (≈ 6 µg/mL); in [28], 2.79 µM (≈ 8 µg/mL); in experiment [29] it was 0.696 µM (≈ 2 µg/mL); in experiment [30] it was 5.57 µM (≈ 16 µg/mL). The same compound yielded an MIC in [31] of 2.79 µM (≈ 8 µg/mL).

For the compound `CC[C@H](C)[C@H](NC(=O)[C@@H]1CCCN1C(=O)[C@H](Cc1c[nH]c2ccccc12)NC(=O)[C@H](CCCN=C(N)N)NC(=O)[C@H](Cc1ccccc1)NC(=O)[C@@H](N)CCCN=C(N)N)C(=O)N[C@@H](CCCN=C(N)N)C(=O)N[C@@H](CCCN=C(N)N)C(=O)N1CCC[C@H]1C(=O)N1CCC[C@H]1C(=O)N[C@H](C(=O)N[C@@H](CCCN=C(N)N)C(=O)N1CCC[C@H]1C(=O)N1CCC[C@H]1C(=O)N[C@@H](Cc1ccccc1)C(=O)N[C@@H](Cc1ccc(O)cc1)C(=O)N[C@@H](CCCN=C(N)N)C(=O)O)[C@@H](C)CC` [RFRWPIRRPPIRPPFYR], the MIC was 8 µM (≈ 18.5 µg/mL) in experiment [32]; 64 µM (≈ 148 µg/mL) in experiment [12]; 8 µM (≈ 18.5 µg/mL) in [33]; 24 µM (≈ 55.5 µg/mL) in experiment [34]; 2.83 µM (≈ 6.54 µg/mL) against Escherichia coli; > 64 µM in [28]. In the experiment on Escherichia coli BW25113, this compound showed an MIC of 4 µM (≈ 9.24 µg/mL).

`C[C@H](NC(=O)[C@H](C)NC(=O)[C@H](CCCCN)NC(=O)[C@H](Cc1ccccc1)NC(=O)[C@H](C)NC(=O)[C@H](CCCCN)NC(=O)[C@H](C)NC(=O)[C@H](Cc1c[nH]c2ccccc12)NC(=O)[C@H](C)NC(=O)[C@H](CCCCN)NC(=O)[C@H](C)NC(=O)[C@H](Cc1ccccc1)NC(=O)[C@H](C)NC(=O)[C@H](C)NC(=O)[C@H](CCCCN)NC(=O)[C@H](CCCCN)NC(=O)[C@@H](N)CCCCN)C(N)=O` [KKKAAFAKAWAKAFKAA]: the MIC is 50 µM (≈ 91.8 µg/mL) in experiment [35], ≥ 50 µM in experiment [36], ≥ 50 µM in [37] and 25 µM (≈ 45.9 µg/mL) with Escherichia coli K-12.

The values above are taken from DBAASP.
